Experimental findings from US7838542B2, “Bicyclic compositions and methods for modulating a kinase cascade” (Kinex Pharmaceuticals, LLC, priority 2006, dated 2010) are described below.

One data set has as its system SCID mice. The following applies: mouse, in vivo, ip.
In another data set the target is pp60^c-src (Homo sapiens, UniProt P12931). Kind of data set: Src inhibition (RR-SRC phosphorylation), Cellular Mimetic assay. The conditions noted are these: for mode of inhibition with respect to ATP: IC50 or % inhibition monitored at ATP increased up to 1 mM; for % Inhibition of 2 mM RR-src at Inhibitor Concentration (1 mM): inhibitor 1 mM; for % Inhibition of 2 mM RR-src at Inhibitor Concentration (100 μM): inhibitor 100 μM.

Data set [1] has as its target T1, PKA (Homo sapiens, UniProt P17612). The experiment in a line: STAIRe method: form of the protein kinase the inhibitor binds best to. It is filed as biochemical. The text has this: This was a somewhat surprising result since these inhibitors are analogs of the “end product inhibitors” 1 and 12 which must bind simultaneously with MgADP just following phosphate transfer in the generally accepted reaction mechanism for protein kinases.

Data set [2] deals with T1, PKA. Kind of data set: PKA inhibition, Literature Mimetic assay. The following applies: Literature Mimetic assay conditions. It is filed as biochemical. The text has this:
(§1) The boronic acid inhibitors 21-24 have two Arg's in their sequence also and therefore will bind to the phosphocellulose paper in addition to Kemptamide (although not as consistently or completely due to one less positive charge). Consequently, when analyzed as inhibitors, the amount of phosphorylated Kemptamide produced was not only counted, but also the amount of phosphorylated inhibitor simultaneously produced (e.g. see 26 below). The net result is that distorted IC50 curves are obtained which show net “stimulation” at higher inhibitor concentrations in some cases. […] The underlying substrate behavior of these “inhibitors” makes an accurate measurement of their inhibition potency impossible with the current assay. However, it does appear from the data that homologating the boronic acid functionality out with only CH2 groups (homologations with boronic acid non-peptide Src inhibitors may also be carried out) decreases the binding affinity and ability to function as a substrate.

The target of data set [3] is T1, PKA. The experiment in a line: PKA inhibition, Cellular Mimetic assay. It is filed as biochemical. The conditions noted are these: Cellular Mimetic assay conditions.
Excerpt: as §1

Data set [4] concerns LA25 cells (temperature-sensitive pp60^v-Src transformant of NRK). The experiment in a line: LA25 cell growth at permissive and non-permissive temperature. It is filed as cell-based, rat. The protocol:
(§2) Active Src inhibitors can be studied in a set of side-by-side cell-based assays using normal rat kidney (NRK) cells and a temperature-sensitive pp60^v-Src transformant of this cell line (LA25). The LA25 transformant engages in anchorage- and serum-independent growth at the “permissive” temperature of 33° C. due to activation of pp60^v-src but not at the “non-permissive” temperature of 40° C. at which pp60^v-src is not activated (Li et al., 1996). The use of this pair of closely related cell lines for testing the Src inhibitors at both the permissive and non-permissive temperatures allows one to determine if a given Src inhibitor is blocking cell growth due to specific blockade of the Src signaling pathway, by a different mechanism or by a general cytotoxic effect.
(§3) As shown in this graph the growth of the LA25 cells at the permissive temperature of 33° C. is inhibited by ca. 50% at a 25 μM concentration of 43-meta relative to the LA25 cell growth at the non-permissive 40° C. as a control. […] Since the 43-meta solutions were prepared with a low concentration of DMSO for solubilization, a DMSO control was also run at the same concentration.

Data set [5] concerns normal rat kidney (NRK) cells. The experiment in a line: NRK non-transformed cell growth. The data set is classed as cell-based. Here is the method: as §2, §3
The subject of another data set is PC-3. The experiment in a line: NIH 60-tumor cell panel assay, PC-3. The data set is classed as cell-based. The conditions noted are these: read-out: growth inhibition IC50, PC-3. The text has this:
The initial non-peptide Src inhibitors have also shown very encouraging results in four different series of cell culture assays. 1) In the NIH 60-tumor cell panel assay, broad activity (as one would expect for a Src inhibitor) was seen against the tumor cell lines, including the prostate lines. […] 3) The Src inhibitors were compared to the cancer drugs etoposide, taxol, doxorubicin and cisplatin in ovarian tumors from three different patients and an abdominal carcinoma from another patient. […] 5) Two of the Src inhibitors were also tested for inhibition of ts v-Src stimulated LA25 cell growth. […] 6) Two of the Src inhibitors were also tested for inhibition of normal rat kidney cell growth.

The next data set deals with DU-145. The experiment in a line: NIH 60-tumor cell panel assay, DU-145. The data set is classed as cell-based. The following applies: read-out: growth inhibition IC50, DU-145.

pIC50, pKi: −log10 of the molar value. “Also recorded” adds a separate entry of the source. Numbered stars: 1 amine (or outer) side, 2 acyl side, 3 side chain; on linkers, the order of the positions; unused ones are H or OH. Square brackets hold non-standard residues; d marks the D form. Peptide text beside a SMILES is read from it. X2 = O=C([C@H](CNS(=O)(=O)O)N[*:1])[*:2]; X3 = O=C([C@H](CB(O)O)N[*:1])[*:2]

pp60^c-src, sequence (P12931 whole entry): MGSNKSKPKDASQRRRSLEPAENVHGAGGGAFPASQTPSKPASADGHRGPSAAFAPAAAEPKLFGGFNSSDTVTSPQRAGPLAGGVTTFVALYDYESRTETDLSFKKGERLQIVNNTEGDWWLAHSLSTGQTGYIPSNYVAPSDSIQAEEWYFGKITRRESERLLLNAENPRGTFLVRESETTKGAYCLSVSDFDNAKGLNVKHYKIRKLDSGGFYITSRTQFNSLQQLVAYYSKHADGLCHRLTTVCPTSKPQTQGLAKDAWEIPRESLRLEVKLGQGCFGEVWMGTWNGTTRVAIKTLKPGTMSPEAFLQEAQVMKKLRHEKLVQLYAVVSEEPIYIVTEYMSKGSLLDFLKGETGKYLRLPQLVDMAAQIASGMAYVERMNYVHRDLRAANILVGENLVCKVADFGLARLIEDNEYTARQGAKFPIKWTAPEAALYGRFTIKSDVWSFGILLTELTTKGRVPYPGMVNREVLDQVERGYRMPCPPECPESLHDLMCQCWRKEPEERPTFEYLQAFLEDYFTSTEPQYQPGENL
Protocol for SCID mice: These compounds were administered to SCID mice by intraperitoneal administration in tween80:EtOH.

For `O=C(NCc1cccc(O)c1)c1cc2cc(F)ccc2[nH]1` [Compound 1a], the “toxicity in MTD study (weight loss)” value with SCID mice is “less toxic in mice than compound 2k”.

`O=C(NCc1cccc(F)c1)c1cc2cc(F)ccc2[nH]1` [Compound 1z] came in with a melting point of 239 to 241 °C. `O=C(Nc1cccc(O)c1)c1cc2ccc(O)cc2cc1O` [Compound 3] gave a pIC50 on pp60^c-src (Table X) of 4.80. As for `CC[C@H](C)[C@H](NC(=O)[C@H](CNS(=O)(=O)O)NC(=O)CNC(=O)[C@H](CCCNC(=N)N)NC(=O)[C@H](CCCNC(=N)N)NC(C)=O)C(N)=O` [Compound 8] (Ac-RRG[X2]I-NH2), the “nucleotide form of the kinase bound best (STAIRe)” value at PKA [1] is given as “bind best when MgATP (not MgADP or no nucleotide) is also bound”. Further, the entries for the “times tighter binding than end product phosphate inhibitor 1” value on PKA [2] and at PKA [3] were 31 × and 108 ×, respectively.

Consider `CC[C@H](C)[C@H](NC(=O)[C@H](CB(O)O)NC(=O)CNC(=O)[C@H](CCCNC(=N)N)NC(=O)[C@H](CCCNC(=N)N)NC(C)=O)C(N)=O` [Compound 21] (Ac-RRG[X3]I-NH2), for which the inhibition at 100 µM at pp60^c-src (read-out: % Inhibition at 100 μM (std. dev.), inhibitor 100 μM, Table IX) came to 14%. Regarding `OB(O)c1ccc2ccccc2c1` [Compound 27, 2-naphthalene boronic acid], at pp60^c-src, the “mode of inhibition with respect to ATP” value is recorded as “not ATP-competitive inhibitors; also recorded: NON-ATP COMPETITIVE”. Turning to `O=S(=O)(O)Nc1ccc2ccccc2c1` [Compound 28], the “mode of inhibition with respect to ATP” value at pp60^c-src is on record as “not ATP-competitive inhibitors; also recorded: NON-ATP COMPETITIVE”. In addition, at pp60^c-src (Table IV), the pIC50 is 2.80, the pKi was 3.02 and the “% Inhibition of 2 mM RR-src at Inhibitor Concentration (1 mM)” value (“% Inhibition of 2 mM RR-src … (1 mM)” for short) was determined as 31%. In the case of `O=S(=O)(O)c1ccc2ccccc2c1` [Compound 29], the “% Inhibition of 2 mM RR-src … (1 mM)” value on pp60^c-src (Table IV) is 0 (1 mM) %. For the molecule `NS(=O)(=O)c1ccc2ccccc2c1` [Compound 31], the “% Inhibition of 2 mM RR-src at Inhibitor Concentration (100 μM)” value (shortened to “% Inhibition of 2 mM RR-src … (100 μM)”) at pp60^c-src (Table IV) is recorded as 0 (100 μM) %. As to `OB(O)c1cccc2ccccc12` [Compound 32], the “% Inhibition of 2 mM RR-src … (100 μM)” value on pp60^c-src (Table IV) was 0 (100 μM) %. `O=P(O)(O)c1cccc2ccccc12` [Compound 33]: the “% Inhibition of 2 mM RR-src … (1 mM)” value at pp60^c-src (Table IV) was 1 (1 mM) %. Consider `NS(=O)(=O)c1cccc2ccccc12` [Compound 34], for which, at pp60^c-src (Table IV), the “% Inhibition of 2 mM RR-src … (100 μM)” value is listed as 0 (100 μM) %. Consider `OB(O)c1cc2ccccc2o1` [Compound 35], for which the “% Inhibition of 2 mM RR-src … (100 μM)” value on pp60^c-src (Table IV) is recorded as 10 (100 μM) %. Take `OB(O)c1cc2ccccc2s1` [Compound 36]: the “% Inhibition of 2 mM RR-src … (100 μM)” value at pp60^c-src (Table IV) is listed as 12 (100 μM) %. Regarding `O=C(Nc1cccc(O)c1)c1cc2ccc(O)cc2cc1O` [Compound 43-meta], the “v-Src induced (Src stimulated) LA25 cell growth” value in [4] is reported as “specifically blocked the v-Src induced cell growth”. Besides, the inhibition at 25 µM in data set [4] (Rattus norvegicus, read-out: inhibition of growth of LA25 cells at the permissive temperature of 33° C., 25 μM, relative to LA25 growth at non-permissive 40° C.) is around 50%. In data set [5], the “normal growth of the parent non-transformed cells” value was “without inhibiting the normal growth of the parent non-transformed cells”. In addition, the cell toxicity result in [5] (up to 400 μM, NRK cells, LA25 cells at 40° C. and at 33° C.) is listed as “lack of cell toxicity”. With `O=C(Nc1cccc(O)c1)c1cc2cccc(O)c2cc1O` [Compound 45], the “v-Src induced (Src stimulated) LA25 cell growth” value in [4] was “specifically blocked the v-Src induced cell growth”. Further, the “normal growth of the parent non-transformed cells” value in data set [5] is “without inhibiting the normal growth of the parent non-transformed cells”. Take `O=C(NCc1cccc(O)c1)c1cc2cc(O)ccc2[nH]1` [Compound 49-meta]: the pIC50 was 4.41 in the data set with PC-3 and below 4.00 in the data set with DU-145.
